# Assay results published in patent EP4227307A1 (Genzyme Corporation, priority 2022, dated 2023).
# Where a name gives a salt, the structure may show the parent alone.
# Target: T1, human recombinant 6His-Nterm SHP2 full-length (Thr2-Arg593) (Homo sapiens, UniProt Q06124)
# T1 construct: 6His-Nterm SHP2 full-length (Thr2-Arg593, R&D system); 6His (N); purchased R&D system
# T1 sequence (Q06124 2-593): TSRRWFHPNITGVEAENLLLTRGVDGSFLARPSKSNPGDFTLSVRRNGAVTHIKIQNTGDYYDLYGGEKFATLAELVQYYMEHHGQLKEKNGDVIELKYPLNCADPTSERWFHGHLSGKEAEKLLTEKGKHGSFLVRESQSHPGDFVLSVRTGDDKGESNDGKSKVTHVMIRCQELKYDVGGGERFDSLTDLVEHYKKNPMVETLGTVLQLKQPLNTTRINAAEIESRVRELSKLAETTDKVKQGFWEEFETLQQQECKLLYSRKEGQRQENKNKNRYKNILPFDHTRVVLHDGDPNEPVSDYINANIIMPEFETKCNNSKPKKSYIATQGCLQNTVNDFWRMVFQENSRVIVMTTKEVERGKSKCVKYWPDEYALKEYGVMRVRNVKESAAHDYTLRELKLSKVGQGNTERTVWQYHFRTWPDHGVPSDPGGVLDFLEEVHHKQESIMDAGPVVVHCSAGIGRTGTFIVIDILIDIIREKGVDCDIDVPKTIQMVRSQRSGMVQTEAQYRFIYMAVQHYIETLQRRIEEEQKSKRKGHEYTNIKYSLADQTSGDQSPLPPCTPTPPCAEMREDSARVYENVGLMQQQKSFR
# Assay: SHP2 Phosphatase Assay (DiFMUP fluorescence)
# Type: biochemical
# Settings: SHP2 0.2 nM pre-incubated with 100 nM bi-phosphorylated activating peptide; compound 1000-0.05 nM, 30 min pre-incubation; DiFMUP 20 µM, 45 min, room temperature; 10-concentration dose-response
# Protocol: Inhibition of SHP2 phosphatase activity was evaluated using human recombinant 6His-Nterm SHP2 full-length (Thr2-Arg593, R&D system), NsCs bi-phosphorylated activating peptide (NH2-LN(pY)AQLWHA(PEG8)LTI(pY)ATIRRF-Amide.acetate, Thermofischer Scientific) and DiFMUP as surrogate phosphatase substrate (Molecular Probes). All reactions were performed at room temperature in 384-well black polystyrene non-binding plate (Corning) with the assay buffer (50 mM HEPES-NaOH pH 7.2, 100 mM NaCl, 0.5 mM EDTA, 0.001% Brij35 including 0.02% BSA and 1 mM DTT added extemporaneously). SHP2 was pre-incubated at least 10 min with the activating peptide (0.2 nM and 100 nM, respectively). 10 µL of this mixture was added to the assay plate, that already contained 15 nL of the compound (1000-0.05 nM). After 30 min pre-incubation, the enzymatic reaction was initiated by the addition of 5 µL DiFMUP in assay buffer without BSA (20 µM). The reaction was stopped by the addition of 15 µL sodium pervanadate solution (100 µM) after 45 min incubation. The fluorescence signal was measured at excitation and emission wavelengths of 350 nm and 450 nm, respectively, using a Pherastar instrument (BMG-LabTech). Percentage of inhibition […] were calculated from the fluorescence signal at 450 nm of the positive and negative control using the following formula: I% = ((signal Max−signal Sample)/(signal Max−signal Min control)) × 100 [formula]
# Positive control (Max): corresponds to the maximum fluorescence signal obtained in the presence of 15 nL DMSO replacing the inhibitor in the pre-incubation step.
# Negative control (Min): corresponds to the minimum signal obtained in the presence of 1 µM of RMC-4550, the structure of which is shown below: [drawing 464]
# The IC50 were then calculated from a dose-response curve of 10 concentrations of tested compound using the 4-parameter logistic model: I% = A + (C)/(1 + exp(−B×log(X)−M)) [formula]
# The parameters A and (A+C) are the lower and upper limits, B is the slope of the curve at the inflexion point, M parameter is the logarithm of the abscissa at the inflexion point, and X is the concentration of compound.
row,IC50,Compound
1,13 nM,"Cc1nc(N2CCC3(CC2)Cc2nc(CO)ccc2[C@H]3N)c2ccnn2c1-c1ccccc1 [Compound 223, [(5S)-5-amino-1'-(6-methyl-7-phenyl-pyrazolo[1,5-a]pyrazin-4-yl)spiro[5,7-dihydrocyclopenta[b]pyridine-6,4'-piperidine]-2-yl]methanol]"
2,383 nM,"Cc1nc(N2CCC3(CC2)Cc2ncccc2[C@@H]3N)c2ccnn2c1-c1ccccc1F [Compound 136, (5R)-1'-[7-(2-fluorophenyl)-6-methyl-pyrazolo[1,5-a]pyrazin-4-yl]spiro[5,7-dihydrocyclopenta[b]pyridine-6,4'-piperidine]-5-amine]"
3,9 nM,"Cc1nc(N2CCC3(CC2)Cc2ncccc2[C@H]3N)c2ccnn2c1-c1ccc2c(c1)CCCO2 [Compound 167, (5S)-1'-(7-chroman-6-yl-6-methyl-pyrazolo[1,5-a]pyrazin-4-yl)spiro[5,7-dihydrocyclopenta[b]pyridine-6,4'-piperidine]-5-amine]"
4,27 nM,"Cc1nc2c(o1)[C@@H](N)C1(CCN(c3nc(C)c(-c4ccccc4F)n4nccc34)CC1)C2 [Compound 224, (6S)-1'-[7-(2-fluorophenyl)-6-methyl-pyrazolo[1,5-a]pyrazin-4-yl]-2-methyl-spiro[4,6-dihydrocyclopenta[d]oxazole-5,4'-piperidine]-6-amine]"
5,11 nM,"Cc1nc(N2CCC3(CC2)Cc2ncccc2[C@H]3N)c2ccnn2c1-c1ccc2scnc2c1 [Compound 170, (5S)-1'-[7-(1,3-benzothiazol-5-yl)-6-methyl-pyrazolo[1,5-a]pyrazin-4-yl]spiro[5,7-dihydrocyclopenta[b]pyridine-6,4'-piperidine]-5-amine]"
6,140 nM,"Cc1nc(N2CCC3(CC2)Cc2ccccc2[C@H]3N)c2ccnn2c1-c1cnoc1C [Compound 150, (1S)-1'-[6-methyl-7-(5-methylisoxazol-4-yl)pyrazolo[1,5-a]pyrazin-4-yl]spiro[indane-2,4'-piperidine]-1-amine]"
7,4 nM,"Cc1nc(N2CCC3(CC2)Cc2ncccc2[C@H]3N)c2ccnn2c1Sc1ccnc(N)c1Cl [Compound 232, (5S)-1'-[7-[(2-amino-3-chloro-4-pyridyl)sulfanyl]-6-methyl-pyrazolo[1,5-a]pyrazin-4-yl]spiro[5,7-dihydrocyclopenta[b]pyridine-6,4'-piperidine]-5-amine]"
8,15 nM,"COc1ccc(Cl)c(-c2c(C)nc(N3CCC4(CC3)Cc3ncccc3[C@H]4N)c3ccnn23)c1 [Compound 173, (5S)-1'-[7-(2-chloro-5-methoxy-phenyl)-6-methyl-pyrazolo[1,5-a]pyrazin-4-yl]spiro[5,7-dihydrocyclopenta[b]pyridine-6,4'-piperidine]-5-amine]"
9,288 nM,"Cc1nc(N2CCC3(CC2)Cc2ccc(C#N)cc2[C@@H]3N)c2ccnn2c1-c1cnn(C)c1C (single isomer, unassigned) [Compound 212]"
10,115 nM,"Cc1nc(N2CCC3(CC2)Oc2ccccc2[C@H]3N)c2ccnn2c1-c1cccc(F)c1Cl [Compound 20, (3R)-1'-[7-(2-chloro-3-fluorophenyl)-6-methyl-pyrazolo[1,5-a]pyrazin-4-yl]spiro[3H-benzofuran-2,4'-piperidine]-3-amine]"
11,3 nM,"Cc1nc(N2CCC3(CC2)Cc2ncccc2[C@H]3N)c2ccnn2c1-c1ccc2c(c1F)OCCO2 [Compound 34, (5S)-1'-[7-(5-fluoro-2,3-dihydro-1,4-benzodioxin-6-yl)-6-methyl-pyrazolo[1,5-a]pyrazin-4-yl]spiro[5,7-dihydrocyclopenta[b]pyridine-6,4'-piperidine]-5-amine]"
12,42 nM,"Cc1nc(N2CCC3(CC2)Oc2ncccc2[C@H]3N)c2ccnn2c1-c1ccc(F)c2cc[nH]c12 [Compound 16, (3R)-1'-[7-(4-fluoro-1H-indol-7-yl)-6-methyl-pyrazolo[1,5-a]pyrazin-4-yl]spiro[3H-furo[2,3-b]pyridine-2,4'-piperidine]-3-amine]"
13,685 nM,"COc1ccc2c(n1)[C@H](N)C1(CCN(c3nc(C)c(-c4cccc(F)c4Cl)n4nccc34)CC1)C2 [Compound 216, (7R)-1'-[7-(2-chloro-3-fluoro-phenyl)-6-methyl-pyrazolo[1,5-a]pyrazin-4-yl]-2-methoxy-spiro[5,7-dihydrocyclopenta[b]pyridine-6,4'-piperidine]-7-amine]"
14,7 nM,"COc1cccc(-c2c(C)nc(N3CCC4(CC3)Cc3ncccc3[C@H]4N)c3ccnn23)c1F [Compound 4, (5S)-1'-[7-(2-fluoro-3-methoxy-phenyl)-6-methyl-pyrazolo [1 ,5-a]pyrazin-4-yl]spiro[5,7-dihydrocyclopenta[b]pyridine-6,4'-piperidine] -5-amine]"
15,> 1000 nM,"COCc1cnn2c(-c3ccccc3F)c(C)nc(N3CCC4(CC3)Cc3ncccc3[C@H]4N)c12 [Compound 225, (5S)-1'-[7-(2-fluorophenyl)-3-(methoxymethyl)-6-methyl-pyrazolo[1,5-a]pyrazin-4-yl]spiro[5,7-dihydrocyclopenta[b]pyridine-6,4'-piperidine]-5-amine]"
16,5 nM,"Cc1nc(N2CCC3(CC2)Cc2ncccc2[C@H]3N)c2ccnn2c1-c1cccc(C#N)c1F [Compound 181, 2-fluoro-3-[6-methyl-4-[(5S)-5-aminospiro[5,7-dihydrocyclopenta[b]pyridine-6,4'-piperidine]-1'-yl]pyrazolo[1,5-a]pyrazin-7-yl]benzonitrile]"

row,Compound,IC50
1,"Cc1nccc(-c2c(C)nc(N3CCC4(CC3)Cc3ccc(F)cc3[C@H]4N)c3ccnn23)c1Cl [Compound 91, (1S)-1'-[7-(3-chloro-2-methyl-4-pyridyl)-6-methyl-pyrazolo[1,5-a]pyrazin-4-yl]-6-fluoro-spiro[indane-2,4'-piperidine]-1-amine hydrochloride]",19 nM
2,"Cc1cc2c(cn1)CC1(CCN(c3nc(C)c(-c4ccccc4)n4nccc34)CC1)[C@@H]2N [Compound 114, (5S)-3-methyl-1'-(6-methyl-7-phenyl-pyrazolo[1,5-a]pyrazin-4-yl)spiro[5,7-dihydrocyclopenta[c]pyridine-6,4'-piperidine]-5-amine hydrochloride]",10 nM
3,"Cc1nc(N2CCC3(CC2)Cc2ncsc2[C@H]3N)c2ccnn2c1-c1ccccc1F [Compound 75, (6S)-1'-[7-(2-fluorophenyl)-6-methyl-pyrazolo[1,5-a]pyrazin-4-yl]spiro[4,6-dihydrocyclopenta[d]thiazole-5,4'-piperidine]-6-amine hydrochloride]",7 nM
4,"COc1ccc2c(c1)[C@@H](N)C1(CCN(c3nc(C)c(-c4ccnc(C)c4F)n4nccc34)CC1)C2 [Compound 118, (1S)-1'-[7-(3-fluoro-2-methyl-4-pyridyl)-6-methyl-pyrazolo[1,5-a]pyrazin-4-yl]-6-methoxy-spiro [indane-2,4'-piperidine]-1-amine hydrochloride]",4 nM
5,"COc1ccc2c(c1)[C@@H](N)C1(CCN(c3nc(C)c(-c4cnn(C)c4C)n4nccc34)CC1)C2 [Compound 120, (1S)-1'-[7-(1,5-dimethylpyrazol-4-yl)-6-methyl-pyrazolo[1,5-a]pyrazin-4-yl]-6-methoxy-spiro[indane-2,4'-piperidine]-1-amine hydrochloride]",11 nM
6,"Cc1nc(N2CCC3(CC2)Cc2scnc2[C@H]3N)c2ccnn2c1-c1cccc(F)c1F [Compound 65, (4S)-1'-[7-(2,3-difluorophenyl)-6-methyl-pyrazolo[1,5-a]pyrazin-4-yl]spiro[4,6-dihydrocyclopenta[d]thiazole-5,4'-piperidine]-4-amine hydrochloride]",22 nM
